Data as given in patent US20150105252A1, “SUBSTITUTED PYRAZOLES AS HERBICIDES” (E I DU PONT DE NEMOURS AND COMPANY, priority 2013, published 2015).

Key:
soybean = experiment: Test C preemergence; format: in vivo, Glycine max; settings: for Plant response rating (scale of 0 to 100), Soybean: Preemergence, 250 g ai/ha
Outline: (§1)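 Seeds sown in loam–sand blend and treated preemergence with test chemicals in non-phytotoxic solvent with surfactant; postemergence plants in peat-based medium, treated at 2–18 cm (1- to 4-leaf stage). Greenhouse 13 to 15 days, then visual rating versus controls, 0 (no effect) to 100 (complete control).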

sedge, umbrella = experiment: Test B flood; format: in vivo, Cyperus difformis; settings: 250 g ai/ha, visual rating on 0 to 100 scale (0 no effect, 100 complete control), 13 to 15 days
Outline: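 Flooded-pot test: compound dosed into 3 cm of standing water above soil when plants had two leaves. Visual control ratings (0–100) versus untreated plants after 13–15 d.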

johnsongrass = experiment: Test C postemergence; format: in vivo, Sorghum halepense; settings: for Johnsongrass plant response rating: scale 0 to 100
Outline: as §1

velvetleaf [1] = experiment: Test C preemergence; format: in vivo, Abutilon theophrasti; settings: for Plant response rating (scale of 0 to 100), Velvetleaf: Preemergence, 250 g ai/ha
Outline: as §1

velvetleaf [2] = experiment: Test C postemergence; format: in vivo, Abutilon theophrasti; settings: for Velvetleaf plant response rating / Plant response rating, Velvetleaf: postemergence; for Velvetleaf plant response rating: 62 g ai/ha, scale 0 to 100
Outline: as §1

oat, wild = experiment: Test C postemergence; format: in vivo, Avena fatua; settings: for Oat, Wild plant response rating: scale 0 to 100
Outline: as §1

velvetleaf [3] = experiment: Test A postemergence; format: in vivo, Abutilon theophrasti; settings: Postemergence, 1000 g ai/ha; visual rating after approx. 10 days, 0 to 100 scale (0 no effect, 100 complete control)
Outline: (§2)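 Visual injury ratings, 0 = no effect to 100 = complete control, taken about 10 days after treatment against untreated controls. Test chemicals, in a non-phytotoxic surfactant-containing solvent, were sprayed onto soil preemergence or onto one- to two-leaf plants (2–10 cm) postemergence, in loam–sand soil under greenhouse conditions.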

lambsquarters = experiment: Test C preemergence; format: in vivo, Chenopodium album; settings: for Plant response rating (scale of 0 to 100), Lambsquarters: Preemergence, 250 g ai/ha
Outline: as §1

chickweed = experiment: Test C postemergence; format: in vivo, Stellaria media; settings: for Chickweed plant response rating: scale 0 to 100
Outline: as §1

wheat = experiment: Test A postemergence; format: in vivo, Triticum aestivum
Outline: as §2

morningglory [4] = experiment: Test C preemergence; format: in vivo, Ipomoea coccinea; settings: for Plant response rating (scale of 0 to 100), Morningglory: Preemergence, 250 g ai/ha
Outline: as §1

morningglory [5] = experiment: Test C postemergence; format: in vivo, Ipomoea coccinea; settings: for Morningglory plant response rating: scale 0 to 100
Outline: as §1

morningglory [6] = experiment: Test A postemergence; format: in vivo, Ipomoea spp.; settings: Postemergence, 1000 g ai/ha; visual rating after approx. 10 days, 0 to 100 scale (0 no effect, 100 complete control)
Outline: as §2

barnyardgrass = experiment: Test C preemergence; format: in vivo, Echinochloa crus-galli; settings: for Barnyardgrass plant response rating: preemergence
Outline: as §1

[7] = preemergence, 31 g ai/ha, scale 0 to 100 (0 no effect, 100 complete control), 13 to 15 days
[8] = preemergence, 62 g ai/ha, 13 to 15 days, scale 0 to 100, 0 = no effect, 100 = complete control
[9] = preemergence, 125 g ai/ha, scale 0 to 100, 0 is no effect, 100 is complete control
[10] = postemergence, 250 g ai/ha, scale 0 to 100 (0 no effect, 100 complete control)
[11] = postemergence, 125 g ai/ha, scale 0 to 100, 0 no effect, 100 complete control
[12] = 250 g ai/ha, scale 0 to 100 (0 no effect, 100 complete control)
[13] = 125 g ai/ha, scale 0 to 100, 0 no effect, 100 complete control
[14] = preemergence, 31 g ai/ha, visual rating, scale 0 to 100 (0 no effect, 100 complete control), 13 to 15 days
[15] = preemergence, 62 g ai/ha, scale 0 to 100 (0 no effect, 100 complete control), 13 to 15 days
[16] = Postemergence, 31 g ai/ha, visually evaluated after 13 to 15 days

Compound: Cc1cc(C(=O)NCC(F)(F)F)nn1Cc1ccnc(C(F)(F)F)c1 [Compound 74]
- Plant response rating (scale of 0 to 100), Soybean (soybean): 98
- Soybean plant response rating (soybean; [7]): 25
- Plant response rating, Soybean (soybean; [8]): 55
- Soybean plant response rating (soybean; [9]): 85
- Plant response rating, Sedge, Umbrella (sedge, umbrella): 65
- Johnsongrass plant response rating (johnsongrass; Postemergence, 31 g ai/ha): 0
- Johnsongrass plant response rating (johnsongrass; postemergence, 62 g ai/ha): 0
- Plant response rating, Johnsongrass (johnsongrass; [10]): 15
- Plant response rating, Johnsongrass (johnsongrass; [11]): 5
- Plant response rating (scale of 0 to 100), Velvetleaf (velvetleaf [1]): 100
- Velvetleaf plant response rating (velvetleaf [1]; [7]): 45
- Plant response rating, Velvetleaf (velvetleaf [1]; [8]): 65
- Velvetleaf plant response rating (velvetleaf [1]; [9]): 100
- Velvetleaf plant response rating (velvetleaf [2]): 30
- Plant response rating, Velvetleaf (velvetleaf [2]; [12]): 40
- Plant response rating, Velvetleaf (velvetleaf [2]; [13]): 30
- Oat, Wild plant response rating (oat, wild; Postemergence, 31 g ai/ha): 0
- Oat, Wild plant response rating (oat, wild; postemergence, 62 g ai/ha): 0
- Plant response rating, Oat, Wild (oat, wild; [10]): 5
- Plant response rating, Oat, Wild (oat, wild; [11]): 5
- Velvetleaf plant response rating (velvetleaf [3]): 100
- Plant response rating (scale of 0 to 100), Lambsquarters (lambsquarters): 95
- Lambsquarters plant response rating (lambsquarters; [7]): 85
- Plant response rating, Lambsquarters (lambsquarters; [8]): 90
- Lambsquarters plant response rating (lambsquarters; [9]): 90
- Chickweed plant response rating (chickweed; Postemergence, 31 g ai/ha): 20
- Chickweed plant response rating (chickweed; postemergence, 62 g ai/ha): 45
- Plant response rating, Chickweed (chickweed; [10]): 55
- Plant response rating, Chickweed (chickweed; [11]): 45
- Wheat plant response rating (wheat; Postemergence, 1000 g ai/ha, visual rating after approx. 10 days, 0 to 100 scale (0 no effect, 100 complete control)): 90
- Plant response rating (scale of 0 to 100), Morningglory (morningglory [4]): 100
- Morningglory plant response rating (morningglory [4]; [7]): 75
- Plant response rating, Morningglory (morningglory [4]; [8]): 100
- Morningglory plant response rating (morningglory [4]; [9]): 100
- Morningglory plant response rating (morningglory [5]; Postemergence, 31 g ai/ha): 70
- Morningglory plant response rating (morningglory [5]; postemergence, 62 g ai/ha): 75
- Plant response rating, Morningglory (morningglory [5]; [10]): 80
- Plant response rating, Morningglory (morningglory [5]; [11]): 75
- Morningglory plant response rating (morningglory [6]): 100

Compound: CCc1cc(C(=O)NOC(C)C)nn1Cc1ccnc(OC(F)F)c1 [Compound 126]
- Plant response rating (scale of 0 to 100), Soybean (soybean): 98
- Soybean plant response rating (soybean; [14]): 25
- Soybean plant response rating (soybean; [15]): 40
- Soybean plant response rating (soybean; [9]): 75
- Plant response rating, Sedge, Umbrella (sedge, umbrella): 95
- Plant response rating (scale of 0 to 100 where 0 is no effect and 100 is complete control), Johnsongrass (johnsongrass; [16]): 5
- Johnsongrass plant response rating (johnsongrass; postemergence, 62 g ai/ha): 10
- Plant response rating, Johnsongrass (johnsongrass; [10]): 25
- Plant response rating, Johnsongrass (johnsongrass; [11]): 20
- Plant response rating (scale of 0 to 100), Velvetleaf (velvetleaf [1]): 100
- Velvetleaf plant response rating (velvetleaf [1]; [14]): 65
- Velvetleaf plant response rating (velvetleaf [1]; [15]): 85
- Velvetleaf plant response rating (velvetleaf [1]; [9]): 100
- Plant response rating (scale of 0 to 100 where 0 is no effect and 100 is complete control), Velvetleaf (velvetleaf [2]; [16]): 30
- Velvetleaf plant response rating (velvetleaf [2]): 25
- Plant response rating, Velvetleaf (velvetleaf [2]; [12]): 70
- Plant response rating, Velvetleaf (velvetleaf [2]; [13]): 35
- Plant response rating (scale of 0 to 100 where 0 is no effect and 100 is complete control), Oat, Wild (oat, wild; [16]): 35
- Oat, Wild plant response rating (oat, wild; postemergence, 62 g ai/ha): 15
- Plant response rating, Oat, Wild (oat, wild; [10]): 50
- Plant response rating, Oat, Wild (oat, wild; [11]): 20
- Plant response rating (scale of 0 to 100), Lambsquarters (lambsquarters): 100
- Lambsquarters plant response rating (lambsquarters; [14]): 85
- Lambsquarters plant response rating (lambsquarters; [15]): 98
- Lambsquarters plant response rating (lambsquarters; [9]): 100
- Plant response rating (scale of 0 to 100 where 0 is no effect and 100 is complete control), Chickweed (chickweed; [16]): 60
- Chickweed plant response rating (chickweed; postemergence, 62 g ai/ha): 70
- Plant response rating, Chickweed (chickweed; [10]): 85
- Plant response rating, Chickweed (chickweed; [11]): 80
- Plant response rating (scale of 0 to 100), Barnyardgrass (barnyardgrass; Preemergence, 250 g ai/ha): 100
- Barnyardgrass plant response rating (barnyardgrass; 31 g ai/ha, scale 0 to 100 (0 no effect, 100 complete control), 13 to 15 days): 75
- Barnyardgrass plant response rating (barnyardgrass; 62 g ai/ha, scale 0 to 100 (0 no effect, 100 complete control), 13 to 15 days): 100
- Barnyardgrass plant response rating (barnyardgrass; 125 g ai/ha, scale 0 to 100, 0 is no effect, 100 is complete control): 100
- Wheat plant response rating (wheat; Postemergence, 500 g ai/ha, 0 to 100 scale (0 no effect, 100 complete control)): 90
- Wheat plant response rating (wheat; postemergence, 125 g ai/ha, about 10 days, visual rating on 0 to 100 scale (0 no effect, 100 complete control)): 90
- Plant response rating (scale of 0 to 100), Morningglory (morningglory [4]): 100
- Morningglory plant response rating (morningglory [4]; [14]): 55
- Morningglory plant response rating (morningglory [4]; [15]): 70
- Morningglory plant response rating (morningglory [4]; [9]): 98
- Plant response rating (scale of 0 to 100 where 0 is no effect and 100 is complete control), Morningglory (morningglory [5]; [16]): 40
- Morningglory plant response rating (morningglory [5]; postemergence, 62 g ai/ha): 60
- Plant response rating, Morningglory (morningglory [5]; [10]): 80
- Plant response rating, Morningglory (morningglory [5]; [11]): 80
